Assays:
Assay type in all cases: functional, organism-based
Influenza A virus [1] = test: Antiviral activity against influenza A virus A/WSN/1933 (H1N1) infected in MDCK cells harbouring TamiFlu sensitive neuraminidase 274Y mutant assessed as reduction in cytopathic effect by DAPI staining based analysis
Influenza A virus [2] = test: Antiviral activity against influenza A virus A/WSN/1933 (H1N1) harboring Tamiflu- sensitive neuraminidase (274H) infected in MDCK cells assessed as reduction in cytopathic effect by fluorescence based analysis
Influenza A virus [3] = test: Antiviral activity against influenza A virus A/WSN/1933 (H1N1) harboring Tamiflu- sensitive neuraminidase (274Y) infected in MDCK cells assessed as reduction in cytopathic effect by fluorescence based analysis
Influenza A virus [4] = test: Antiviral activity against influenza A virus A/WSN/1933 (H1N1) infected in MDCK cells harbouring TamiFlu sensitive neuraminidase 274H mutant assessed as reduction in cytopathic effect by DAPI staining based analysis
Influenza A virus [5] = test: Antiviral activity against Oseltamivir-resistant Influenza A virus (H1N1) pdm09

| Compound | EC50 (Influenza A virus [1]) | IC50 (Influenza A virus [2]) | EC50 (Influenza A virus [3]) | EC50 (Influenza A virus [4]) | EC50 (Influenza A virus [5]) |
| --- | --- | --- | --- | --- | --- |
| Cc1onc(-c2ccccc2Cl)c1C(=O)N1CCN(c2ccc([N+](=O)[O-])cc2Cl)CC1 | 140 nM | 70 nM | 140 nM | 140 nM |  |
| COc1cccc(OC)c1C(=O)/C=C/c1nc(C)c(C)nc1C |  |  |  |  | 1040 nM |

— ChEMBL document CHEMBL5376009 (RSC Med Chem, 2024)
